Where two headings read alike, the source gives them in different places.
What was measured:
PARP-1 = PARP-1 (Homo sapiens, UniProt P09874); conditions: release of PARP-1 from DNA; cited from earlier work
PIP cells = conditions: cited from earlier work
PSMA^+ PIP cells [1] = test: PSMA-specific uptake and internalization in PIP cells; type: cell-based; conditions: for Total cell-associated activity (percentage of input dose): 37° C., 5×10^5 PIP cells
Method: PSMA-specific uptake and internalization of [^131I]PARP-PSMA combo agent 13 was determined by incubation with 5×10^5 PIP cells in triplicate in the absence or presence of 200 μM 2-PMPA at 37° C. for 0.25-2 h. After removing the unbound activity-containing medium, the cells were washed with 50 mM glycine, pH 2.8 and finally, cells were lysed with 1M NaOH. Radioactivity in the supernatants, glycine wash (membrane-bound) and lysate (internalized) fractions was counted and percentage of input dose calculated. […] Total cell-associated activity was 18.7±1.0%, 30.0±0.9%, 31.8±1.0 and 37.9±0.6% at 15, 30, 60, and 120 min, respectively.

PSMA^+ PIP cells [2] = test: Subcellular fractionation in PSMA+ PIP cells; type: cell-based; conditions: 1 h
Method: Subcellular fractionation of [^131I]PARP-PSMA combo agent 13 in PSMA+ PIP cells was determined using The Subcellular Protein Fractionation Kit for Cultured Cells (Number 78840) purchased from Thermo Scientific. PIP Cells (5 million) were incubated with […] of [^131I] 13 in 1.5 ml tubes with a final incubation volume of 500 μL. Stepwise separation and preparation of cytoplasmic, membrane, nuclear soluble, chromatin-bound and cytoskeletal protein extracts from PSMA^+ PIP cells were achieved by following the protocol provided by Thermo Scientific. The following groups of experiments were performed: • 1. ([^131I]PARP-PSMA combo agent 13. • 2. ([^131I]PARP-PSMA combo agent 13+2-PMPA blocking agent (680 μM) • 3. ([^131I]PARP-PSMA combo agent 13+Olaparib blocking agent (6.8 mM) • 4. ([^131I]PARP-PSMA combo agent 13+2-PMPA blocking agent (6.8 mM)+Olaparib blocking agent (6.8 mM)

[3] = + 2-PMPA (6.8 mM) + Olaparib (6.8 mM) blocking agents
[4] = + 2-PMPA blocking agent (680 μM)
[5] = + Olaparib blocking agent (6.8 mM)

Sequence of PARP-1 (P09874 whole entry): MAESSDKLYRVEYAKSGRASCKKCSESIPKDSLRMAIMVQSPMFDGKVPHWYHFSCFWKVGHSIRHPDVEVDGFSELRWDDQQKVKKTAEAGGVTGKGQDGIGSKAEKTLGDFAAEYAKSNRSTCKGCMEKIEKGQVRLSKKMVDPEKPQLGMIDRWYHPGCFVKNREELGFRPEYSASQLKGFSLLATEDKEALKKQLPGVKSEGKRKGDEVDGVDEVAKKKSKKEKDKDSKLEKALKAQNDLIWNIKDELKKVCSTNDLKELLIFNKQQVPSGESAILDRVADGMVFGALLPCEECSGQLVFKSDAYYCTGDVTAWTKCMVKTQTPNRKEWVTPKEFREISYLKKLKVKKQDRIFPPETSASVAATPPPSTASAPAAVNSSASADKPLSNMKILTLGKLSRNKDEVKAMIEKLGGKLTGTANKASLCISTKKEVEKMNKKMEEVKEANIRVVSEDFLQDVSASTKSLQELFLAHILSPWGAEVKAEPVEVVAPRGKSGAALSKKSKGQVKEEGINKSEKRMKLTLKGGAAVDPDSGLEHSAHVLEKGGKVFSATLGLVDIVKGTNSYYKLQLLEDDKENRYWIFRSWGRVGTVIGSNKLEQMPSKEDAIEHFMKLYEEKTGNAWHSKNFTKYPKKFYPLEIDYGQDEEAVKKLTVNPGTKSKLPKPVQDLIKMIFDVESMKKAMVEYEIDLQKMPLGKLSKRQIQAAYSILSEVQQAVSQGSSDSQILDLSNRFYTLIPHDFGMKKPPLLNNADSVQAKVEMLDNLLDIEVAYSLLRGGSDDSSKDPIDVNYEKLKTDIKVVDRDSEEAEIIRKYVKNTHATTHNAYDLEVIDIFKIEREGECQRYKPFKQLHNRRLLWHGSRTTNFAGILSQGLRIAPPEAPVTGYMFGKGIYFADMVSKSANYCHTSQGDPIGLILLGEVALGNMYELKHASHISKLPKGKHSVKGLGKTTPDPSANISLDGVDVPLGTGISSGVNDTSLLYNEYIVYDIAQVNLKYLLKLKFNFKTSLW

C[C@]1(c2nc3c(C(N)=O)cccc3[nH]2)CCCN1 [veliparib]
dissociation rate constant (kd) (PARP-1): 0.00408 s⁻¹

COC(=O)c1cnc(N2CCN(C(=O)c3ccc(-c4nc5c(C(N)=O)cccc5[nH]4)cc3)CC2)nc1 [UKTT15]
dissociation rate constant (kd) (PARP-1): 0.00185 s⁻¹

O=C(O)CC[C@H](NC(=O)N[C@@H](CCCCNC(=O)c1ccc([131I])cc1)C(=O)O)C(=O)O [[^131I]DCIBzL]
Total cell-associated activity (PIP cells; 30 min): 5.0±0.3% | Total cell-associated activity (PIP cells; 60 min): 9.3±1.5% | Total cell-associated activity (PIP cells; 120 min): 16.8±1.0%

O=C(O)CC[C@H](NC(=O)N[C@@H](CCCCNC(=O)CCOCCOCCOCCNC(=O)c1cc([131I])cc(C(=O)N2CCN(C(=O)c3cc(Cc4n[nH]c(=O)c5ccccc45)ccc3F)CC2)c1)C(=O)O)C(=O)O [[^131I]PARP-PSMA combo agent 13, (20S,24S)-1-(3-(4-(2-fluoro-5-((4-oxo-3,4-dihydrophthalazin-1-yl)methyl)benzoyl)piperazine-1-carbonyl)-5-[^131I]iodophenyl)-1,14,22-trioxo-5,8,11-trioxa-2,15,21,23-tetraazahexacosane-20,24,26-tricarboxylic Acid]
Total cell-associated activity (percentage of input dose) (PSMA^+ PIP cells [1]; 15 min): 18.7±1.0% | Total cell-associated activity (percentage of input dose) (PSMA^+ PIP cells [1]; 30 min): 30.0±0.9% | Total cell-associated activity (percentage of input dose) (PSMA^+ PIP cells [1]; 60 min): 31.8±1.0% | Total cell-associated activity (percentage of input dose) (PSMA^+ PIP cells [1]; 120 min): 37.9±0.6% | Uptake blocked by 2-PMPA (PSMA^+ PIP cells [1]; presence of 200 μM 2-PMPA): > 80% | Cells Left Over (PSMA^+ PIP cells [2]; [3]): 0.02% | Cytoplasmic (PSMA^+ PIP cells [2]; [3]): 2.13% | Cytoskeletal Protein (PSMA^+ PIP cells [2]; [3]): 0.02% | Membrane (PSMA^+ PIP cells [2]; [3]): 1.44% | Micrococcal Nuclease (PSMA^+ PIP cells [2]; [3]): 0.03% | Nuclear Soluble (PSMA^+ PIP cells [2]; [3]): 0.14% | Supernatant (Wash Out) (PSMA^+ PIP cells [2]; [3]): 87.21% | Total Cellular Uptake (PSMA^+ PIP cells [2]; [3]): 3.78% | Cells Left Over (PSMA^+ PIP cells [2]; [4]): 0.06% | Cytoplasmic (PSMA^+ PIP cells [2]; [4]): 1.47% | Cytoskeletal Protein (PSMA^+ PIP cells [2]; [4]): 0.03% | Membrane (PSMA^+ PIP cells [2]; [4]): 3.23% | Micrococcal Nuclease (PSMA^+ PIP cells [2]; [4]): 0.09% | Nuclear Soluble (PSMA^+ PIP cells [2]; [4]): 0.11% | Supernatant (Wash Out) (PSMA^+ PIP cells [2]; [4]): 86.85% | Total Cellular Uptake (PSMA^+ PIP cells [2]; [4]): 4.99% | Cells Left Over (PSMA^+ PIP cells [2]; [5]): 0.07% | Cytoplasmic (PSMA^+ PIP cells [2]; [5]): 3.09% | Cytoskeletal Protein (PSMA^+ PIP cells [2]; [5]): 0.15% | Membrane (PSMA^+ PIP cells [2]; [5]): 9.00% | Micrococcal Nuclease (PSMA^+ PIP cells [2]; [5]): 0.14% | Nuclear Soluble (PSMA^+ PIP cells [2]; [5]): 1.01% | Supernatant (Wash Out) (PSMA^+ PIP cells [2]; [5]): 82.42% | Total Cellular Uptake (PSMA^+ PIP cells [2]; [5]): 13.44% | Cells Left Over (PSMA^+ PIP cells [2]; no blocking agent): 0.45% | Cytoplasmic (PSMA^+ PIP cells [2]; no blocking agent): 2.50% | Cytoskeletal Protein (PSMA^+ PIP cells [2]; no blocking agent): 0.28% | Membrane (PSMA^+ PIP cells [2]; no blocking agent): 20.70% | Micrococcal Nuclease (PSMA^+ PIP cells [2]; no blocking agent): 0.59% | Nuclear Soluble (PSMA^+ PIP cells [2]; no blocking agent): 2.17% | Supernatant (Wash Out) (PSMA^+ PIP cells [2]; no blocking agent): 73.31% | Total Cellular Uptake (PSMA^+ PIP cells [2]; no blocking agent): 26.69%
